Experimental data as given in patent US20210198259A1, “HETEROCYCLIC DERIVATIVES AND USE THEREOF” (C&C RESEARCH LABORATORIES, priority 2018, published 2021).
Counter-ions that a name gives are not always drawn.

Test system: not listed separately
Test: Test for pharmacokinetics in ICR mice (oral)
Format: in vivo
Details: 50 mg/kg, ICR mouse, 5 mg/mL solution at 10 mL/kg, plasma
Procedure: As the administration solution for mice of the compounds prepared in the above
Examples, the compound of Example 55 of International Publication No. WO 2010/030785 and the compound of Example 4 of International Publication No. WO 2013/048214, 20% hydroxypropyl-β-cyclodextrin solution (99.75%) and 2N HCl (0.25%) were added sequentially to make 5 mg/mL. Provided that in the case of the compound of Example 10, 99.5% of 20% hydroxypropyl-β-cyclodextrin solution and 0.5% of 2N HCl […] were added.
The weight of each ICR mouse was properly 20-30 g. Dosage of the compound of the present invention was 10 mL/kg, and administered orally using Zonde. Blood collection was performed at 0.5, 1, 2, 4, 7 and 24 hours by orbital venous blood collection using a capillary tube coated with an anticoagulant, and then plasma was isolated using a centrifuge and kept in a freezer.
Plasma collected from animals and standard concentration material were pre-treated using solid-phase extraction, and concentration of the compound of the invention was determined using a liquid chromatography mass spectrometer (Agilent HPLC, API-4000 Qtrap). According to the resulting concentration value, the pharmacokinetics parameter was found using WinNonlin (Version 7.0) and half-life (t1/2), maximum blood concentration (Cmax) and area under the curve (AUCall) are represented in Table 2.

| Structure (SMILES) | AUC [ng·h/mL] | Cmax [ng/mL] | half-life [h] |
| --- | --- | --- | --- |
| CN1CCN(C2=Nc3ncc(Br)cc3N3CC(=O)N=C23)CC1 [Example 1, 8-bromo-4-(4-methylpiperazin-1-yl)imidazo[1,2-a]pyrido[2,3-e]pyrazin-2(1H)-one] | 8650 | 2280 | 3.81 |
| CN1CCN(C2=Nc3ccc([N+](=O)[O-])cc3N3CC(=O)N=C23)CC1 [Example 10, 4-(4-methylpiperazin-1-yl)-8-nitroimidazo[1,2-a]quinoxalin-2(1H)-one] | 920 | 360 | 2.04 |
| CN1CCN(C2=Nc3ccc(Br)cc3N3CC(=O)N=C23)CC1 [Example 12, 8-bromo-4-(4-methylpiperazin-1-yl)imidazo[1,2-a]quinoxalin-2(1H)-one] | 1390 | 570 | 1.73 |

Biological target: T1, human histamine 4 receptor (hH4R) (Homo sapiens, UniProt Q9H3N8)
T1 construct: purchased Multispan
T1 sequence (Q9H3N8 whole entry): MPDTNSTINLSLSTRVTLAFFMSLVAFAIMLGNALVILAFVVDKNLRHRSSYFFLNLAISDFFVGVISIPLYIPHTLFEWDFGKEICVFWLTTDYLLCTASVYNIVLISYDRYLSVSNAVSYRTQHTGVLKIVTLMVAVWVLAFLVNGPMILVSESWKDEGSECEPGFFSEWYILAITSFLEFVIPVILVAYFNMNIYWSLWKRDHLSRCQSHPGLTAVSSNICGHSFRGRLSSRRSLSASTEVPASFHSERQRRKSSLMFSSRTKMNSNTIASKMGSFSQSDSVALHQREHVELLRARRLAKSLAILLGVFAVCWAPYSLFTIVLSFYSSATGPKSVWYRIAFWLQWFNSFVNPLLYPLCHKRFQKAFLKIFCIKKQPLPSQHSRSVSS
Test: Binding affinity of human histamine 4 receptor (hH4R), [3H] histamine displacement
Details: [3H] labeled histamine, hH4R-overexpressed cell membrane
Procedure: The compounds prepared in the above Examples, the compound of Example 55 of International Publication No. WO 2010/030785 and the compound of Example 4 of International Publication No. WO 2013/048214 were diluted by 1,000 fold (v/w) with DMSO, and then 1 mL of the diluted compound solution was mixed with 99 mL of the analysis buffer solution (50 mM tris-HCl pH 7.4, 5 mM EDTA) to obtain concentration of 1 μM. […] of the prepared compound solution was transferred to each well of a 96-well plate, and then 20 mL of 100 μM histamine diluted with analysis buffer solution and 1% DMSO were transferred to each well to calculate non-specific binding and total binding degree. 15 μg of human histamine 4 receptor-overexpressed cell membrane (Multispan) was diluted into […] of analysis buffer solution and that was transferred to each well. [^3H] labeled histamine (PerkinElmer) was diluted into 10 nM concentration, 20 mL was allocated in each well, and then it was kept in a 27° C. incubator for 30 minutes. After the reaction, 100 mL of the mixture was transferred to a glass fiber plate in which 0.5% polyethylene amine was pre-soaked, and then non-binding [^3H] labeled histamine was removed in vacuum. After 6 times washing with 200 mL of washing buffer solution (50 mM tris-HCl, pH 7.4), the plate was dried in a 37° C. oven for 18 hours. […] of betaScint cocktail solution was added to each well, and after 10 minutes CPM (count per minute) value of [^3H] labeled histamine was measured by the use of Micro beta2™. The binding affinity (% inhibition) of the human histamine 4 receptor for the compounds of the present invention was analyzed by an Excel program, and the results of analysis are represented in Table 1.

| Structure (SMILES) | inhibition at 1 µM [%] | Human histamine 4 receptor (hH4R) binding affinity (% inhibition at 1 μM) [%] |
| --- | --- | --- |
| CN1CCN(C2=Nc3ncc(Br)cc3N3CC(=O)N=C23)CC1 [Example 1, 8-bromo-4-(4-methylpiperazin-1-yl)imidazo[1,2-a]pyrido[2,3-e]pyrazin-2(1H)-one] | 79.7 | – |
| CNC1CN(C2=Nc3ncc(Br)cc3N3CC(=O)N=C23)C1 [Example 2, 8-bromo-4-(3-(methylamino)azetidin-1-yl)imidazo[1,2-a]pyrido[2,3-e]pyrazin-2(1H)-one] | 39.5 | – |
| CN[C@@H]1CCN(C2=Nc3ncc(Br)cc3N3CC(=O)N=C23)C1 [Example 3, (R)-8-bromo-4-(3-(methylamino)pyrrolidin-1-yl)imidazo[1,2-a]pyrido[2,3-e]pyrazin-2(1H)-one] | 9.8 | – |
| CN[C@H]1CCN(C2=Nc3ncc(Br)cc3N3CC(=O)N=C23)C1 [Example 4, (S)-8-bromo-4-(3-(methylamino)pyrrolidin-1-yl)imidazo[1.2-a]pyrido[2.3-e]pyrazin-2(1H)-one] | -4.38 | – |
| O=C1CN2C(=N1)C(N1CCN3CCCC3C1)=Nc1ncc(Br)cc12 (stereo not shown) [Example 5, 8-bromo-4-(hexahydropyrrolo[1,2-a]pyrazin-2(1H)-yl)imidazo[1,2-a]pyrido[2,3-e]pyrazin-2(1H)-one] | 55.9 | – |
| CN1CCN(c2nc3ncc(Br)cc3n3c(=O)[nH]nc23)CC1 [Example 6, 8-bromo-4-(4-methylpiperazin-1-yl)pyrido[2,3-e][1,2,4] triazolo[4,3-a]pyrazin-1(2H)-one] | 42.6 | – |
| CN1CCN(c2nc3ncc(Br)cc3n3[nH]c(=O)nc23)CC1 [Example 7, 8-bromo-4-(4-methylpiperazin-1-yl)pyrido[2,3-e][1,2,4] triazolo[1,5-a]pyrazin-2(1H)-one] | -1.12 | – |
| CN1CCN(C2=Nc3nc(Cl)c(Br)cc3N3CC(=O)N=C23)CC1 [Example 8, 8-bromo-7-chloro-4-(4-methylpiperazin-1-yl)imidazo[1,2-a]pyrido[2,3-e]pyrazin-2(1H)-one] | 88.9 | – |
| CN1CCN(C2=Nc3nc(F)c(Br)cc3N3CC(=O)N=C23)CC1 [Example 9, 8-bromo-7-fluoro-4-(4-methylpiperazin-1-yl)imidazo[1.2-a]pyrido[2,3-e]pyrazin-2(1H)-one] | 94.4 | – |
| CN1CCN(C2=Nc3ccc([N+](=O)[O-])cc3N3CC(=O)N=C23)CC1 [Example 10, 4-(4-methylpiperazin-1-yl)-8-nitroimidazo[1,2-a]quinoxalin-2(1H)-one] | 98.1 | – |
| CN1CCN(C2=Nc3ccc(N)cc3N3CC(=O)N=C23)CC1 [Example 11, 8-amino-4-(4-methylpiperazin-1-yl)imidazo[1,2-a]quinoxalin-2(1H)-one] | 44.8 | – |
| CN1CCN(C2=Nc3ccc(Br)cc3N3CC(=O)N=C23)CC1 [Example 12, 8-bromo-4-(4-methylpiperazin-1-yl)imidazo[1,2-a]quinoxalin-2(1H)-one] | 101 | – |
| CN1CCN(C2=Nc3ccc(Br)cc3N3CC(=O)NN=C23)CC1 [Example 14, 9-bromo-5-(4-methylpiperazin-1-yl)-1H -[1,2,4]triazino[43-a]quinoxalin-2(3H)-one] | 52.6 | – |
| CN1CCN(C2=Nc3ccc(Br)c(Br)c3N3CC(=O)N=C23)CC1 [Example 15, 8,9-dibromo-4-(4-methylpiperazin-1-yl)imidazo[1,2-a]quinoxalin-2(1H)-one] | 99.2 | – |
| CNC1CN(C2=Nc3ccc(NS(C)(=O)=O)cc3N3CC(=O)N=C23)C1 [Example 16, N-(4-(3-(methylamino)azetidin-1-yl)-2-oxo-1,2-dihydroimidazo[1,2-a]quinoxalin-8-yl)methanesulfonamide] | -5.98 | – |
| CN1CCN(C2=Nc3ncc(Cl)cc3N3CC(=O)N=C23)CC1 [Example 17, 8-chloro-4-(4-methylpiperazin-1-yl)imidazo[1,2-a]pyrido[2,3-e]pyrazin-2(1H)-one] | 87.1 | – |

| Structure (SMILES) | inhibition at 1 µM [%] | Human histamine 4 receptor (hH4R) binding affinity (% inhibition at 1 μM) [%] |
| --- | --- | --- |
| CNC1CN(C2=Nc3ccc(N)cc3N3CC(=O)N=C23)C1 [Example 18, 8-amino-4-(3-(methylamino)azetidin-1-yl)imidazo[1,2-a]quinoxalin-2(1H)-one] | 34.1 | – |
| CNC1CN(C2=Nc3ccc(Cl)cc3N3CC(=O)N=C23)C1 [Example 19, 8-chloro-4-(3-(methylamino)azetidin-1-yl)imidazo[1,2-a]quinoxalin-2(1H)-one] | 96 | – |
| CNC1CN(C2=Nc3ncc(Cl)cc3N3CC(=O)N=C23)C1 [Example 20, 8-chloro-4-(3-(methylamino)azetidin-1-yl)imidazo[1,2-a]pyrido[2,3-e]pyrazin-2(1H)-one] | 20.5 | – |
| CNC1CN(C2=Nc3ccc(Br)cc3N3CC(=O)N=C23)C1 [Example 21, 8-bromo-4-(3-(methylamino)azetidin-1-yl)imidazo[1,2-a]quinoxalin-2(1H)-one hydrochloride] | 95.9 | – |
| CN1CCN(C2=Nc3cc(Cl)ncc3N3CC(=O)N=C23)CC1 [Example 22, 3-chloro-6-(4-methylpiperazin-1-yl)imidazo[1,2-a]pyrido[4,3-e]pyrazin-8(9H)-one] | 86.3 | – |
| CNC1CN(C2=Nc3cnc(Cl)cc3N3CC(=O)N=C23)C1 [Example 23, 8-chloro-4-(3-(methylamino)azetidin-1-yl)imidazo[1.2-a]pyrido[3.4-e]pyrazin-2(1H)-one hydrochloride] | 89.4 | – |
| CNC1CN(C2=Nc3cnc(Cl)cc3N3CC(=O)N=C23)C1 [Example 24, 8-chloro-4-(3-(methylamino)azetidin-1-yl)imidazo[1,2-a]pyrido[3,4-e]pyrazin-2(1H)-one] | – | 91.9 |
| CN1CCN(C2=Nc3cnc(Br)cc3N3CC(=O)N=C23)CC1 [Example 25, 8-bromo-4-(4-methylpiperazin-1-yl)imidazo[1,2-a]pyrido[3,4-e]pyrazin-2(1H)-one] | 96.9 | – |
| CNC1CN(C2=Nc3cnc(Br)cc3N3CC(=O)N=C23)C1 [Example 26, 8-bromo-4-(3-(methylamino)azetidin-1-yl)imidazo[1,2-a]pyrido[3,4-e]pyrazin-2(1H)-one] | 93.4 | – |
| CN1CCN(C2=Nc3ncc(Br)cc3N3CS(=O)(=O)N=C23)CC1 [Example 27, 8-bromo-4-(4-methylpiperazin-1-yl)-1H-pyrido[2,3-e][1,2,4]thiadiazolo[4,3-a]pyrazin 2,2-dioxide] | 22.6 | – |
| CN1CCN(C2=Nc3cnc(Cl)cc3N3CC(=O)N=C23)CC1 [Example 28, 8-chloro-4-(4-methylpiperazin-1-yl)imidazo[1,2-a]pyrido[3,4-e]pyrazin-2(1H)-one hydrochloride] | 96.8 | – |
| CN1CCN(C2=Nc3ccc(Cl)nc3N3CC(=O)N=C23)CC1 [Example 29, 2-chloro-6-(4-methylpiperazin-1-yl)imidazo[1,2-a]pyrido[3,2-e]pyrazin-8(9H)-one] | 97.3 | – |
| CN1CCN(C2=Nc3ccc(Br)nc3N3CC(=O)N=C23)CC1 [Example 30, 2-bromo-6-(4-methylpiperazin-1-yl)imidazo[1,2-a]pyrido[3,2-e]pyrazin-8(9H)-one] | 93.2 | – |
| CNC1CN(C2=Nc3ccc(Cl)nc3N3CC(=O)N=C23)C1 [Example 31, 2-chloro-6-(3-(methylamino)azetidin-1-yl)imidazo[1,2-a]pyrido[3,2-e]pyrazin-8(9H)-one] | 97.7 | – |
| CNC1CN(C2=Nc3ccc(Br)nc3N3CC(=O)N=C23)C1 [Example 32, 2-bromo-6-(3-(methylamino)azetidin-1-yl)imidazo[1,2-a]pyrido[3,2-e]pyrazin-8(9H)-one] | 97.4 | – |
